Patent US20220402862A1 (Intellia Therapeutics, Inc., priority 2019, published 2022)
Several values for one entry are separate records, joined by “and”; a condition that tells them apart may be missing. Equal entries are not always repeated.

Experiments:
Transthyretin (TTR) = assay: Serum TTR ELISA in mice after LNP dosing; assay type: in vivo, CD-1 female mice; conditions: guide G282 experiments; for Serum TTR % TSS: mouse serum TTR relative to TSS control; for Serum TTR: mouse serum, ELISA
Procedure: CD-1 female mice ranging from 6-10 weeks of age were used in each study. Animals were weighed and grouped according to body weight for preparing dosing solutions based on group average weight. LNPs were dosed via the lateral tail vein in a volume of 0.2 mL per animal (approximately 10 mL per kilogram body weight). The animals were periodically observed for adverse effects for at least 24 hours post dose. For studies measuring in vivo editing in liver, CD-1 female mice were dosed at 0.1 mg/kg unless otherwise noted. Animals were euthanized at 6 or 7 days by ex sanguination via cardiac puncture under isoflurane anesthesia. Liver tissue was collected from each animal for DNA extraction and analysis. Blood was collected into serum separator tubes or into tubes containing buffered sodium citrate for plasma as described herein. Cohorts of mice were measured for editing by Next-Generation Sequencing (NGS).
Blood was collected and the serum was isolated as indicated. The total mouse TTR serum levels were determined using a Mouse Prealbumin (Transthyretin) ELISA Kit (Aviva Systems Biology, Cat. OKIA00111). Briefly, sera were serial diluted with kit sample diluent to a final dilution of 10,000-fold for 0.1 mg/kg dose and final dilutions of 10,000-fold and of 2,500-fold for 0.3 mg/kg. This diluted sample was then added to the ELISA plates and the assay was carried out according to the manufacturer's directions.

[1] = RNA encapsulation efficiency of LNPs (Ribogreen fluorescence assay); assay type: physicochemical; conditions: LNP, sg:mRNA 1:1, N/P about 6, amine lipid/DSPC/cholesterol/PEG-2k-DMG 50/9/38/3; Table 2, Experiments 2-20
Outline: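 LNPs were diluted in 1× TE with 0.2% Triton X-100 (total RNA) or without it (free RNA), stained with RiboGreen for ~10 min at room temperature in the dark, and read at Ex 488/Em 525 nm against standard curves of the starting RNA. Encapsulation efficiency = (Total − Free)/Total.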

[2] = pKa measurement of unformulated amine lipid (fluorescence, method of Jayaraman et al.); assay type: physicochemical; conditions: 100 μM in 0.1 M phosphate buffer, pH 2.0-12.0
Procedure: The pKa of each amine lipid was determined according to the method in Jayaraman, et al. (Angewandte Chemie, 2012) with the following adaptations. […] Lipid was diluted to 100 μM in 0.1 M phosphate buffer (Boston Bioproducts) where the pH ranged from 2.0-12.0. Fluorescence intensity was measured using excitation and emission wavelengths of 321 nm and 448 nm.

[3] = Dynamic light scattering of LNPs: Z-average diameter, number average diameter, PDI; assay type: physicochemical; conditions: LNP, sg:mRNA 1:1, N/P about 6, 50/9/38/3; Table 2, Experiments 2-20
Outline: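 LNP samples were diluted in PBS and measured by DLS to give intensity-based Z-average diameter, number average diameter and polydispersity index. PDI describes size spread around the mean, with zero meaning a uniform population.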

Row | Compound | Encapsulation (%) [1] | pKa [2] | Number mean (nm) [3] | PDI [3] | Z-avg (nm) [3] | Serum TTR % TSS (Transthyretin (TTR)) [%] | Serum TTR (Transthyretin (TTR)) [µg/mL]
1 | CCCCCCCCCCOC(=O)CCCCCCCCCCCC(=O)OCC(COC(=O)CCC(OCCCCCCCC)OCCCCCCCC)COC(=O)OCCCN(CC)CC (stereo not drawn) [Compound 91, 1-(3-((4,4-bis(octyloxy)butanoyl)oxy)-2-((((3-(diethylamino)propoxy)carbonyl)oxy)methyl)propyl) 13-decyl tridecanedioate] | 99% | 6.08 | 75.67 nm | 0.028 | 93.13 nm | 84 | 633
2 | CCCCCCCCCCOC(=O)CCCCCCCC(=O)OCC(COC(=O)CCCC(=O)OC(CCCCCCCC)CCCCCCCC)COC(=O)NCCN(CC)CC (stereo not drawn) [Compound 88, 1-decyl 9-(3-(((2-(diethylamino)ethyl)carbamoyl)oxy)-2-(((5-(heptadecan-9-yloxy)-5-oxopentanoyl)oxy)methyl)propyl) nonanedioate] | 98% | 6.84 | 99.51 nm | 0.011 | 117.1 nm | 77 | 582
3 | CCCCCC/C=C\COC(=O)CCCCCCCC(=O)OCC(COC(=O)CCCCCC(=O)OC(CCCCCCCC)CCCCCCCC)COC(=O)OCCCN(CC)CC (stereo not drawn) [Compound 85, (Z)-1-(3-(((3-(diethylamino)propoxy)carbonyl)oxy)-2-(((7-(heptadecan-9-yloxy)-7-oxoheptanoyl)oxy)methyl)propyl) 9-(non-2-en-1-yl) nonanedioate] | 99% | 6.16 | 81.21 nm | 0.006 | 97.86 nm | 84 | 762
4 | CCCCC/C=C\C/C=C\CCCCCCCC(=O)OCC(COC(=O)CCCCN(CC)CC)COC(=O)CCC(OCCCCCCCC)OCCCCCCCC (stereo not drawn) [Compound 28, 3-((4,4-bis(octyloxy)butanoyl)oxy)-2-(((5-(diethylamino)pentanoyl)oxy)methyl)propyl (9Z,12Z)-octadeca-9,12-dienoate] | 98% | 7.3 | 68 nm | 0.010 | 83 nm | 73 | 661
5 | CCCCCCCCCCOC(=O)CCCCCCCC(=O)OCC(COC(=O)CCC(OCCCCCCCC)OCCCCCCCC)COC(=O)OCC1CCCN(CC)C1 (stereo not drawn) [Compound 72, 1-(3-((4,4-bis(octyloxy)butanoyl)oxy)-2-(((((1-ethylpiperidin-3-yl)methoxy)carbonyl)oxy)methyl)propyl) 9-decyl nonanedioate] | 99% | 6.07 | 75.22 nm | 0.002 | 91.65 nm | 52 | 479
6 | CCCCCCCCCCCCOC(=O)CCCCCCCC(=O)OCC(COC(=O)CCC(OCCCCCCCC)OCCCCCCCC)COC(=O)OCCCN(CC)CC (stereo not drawn) [Compound 92, 1-(3-((4,4-bis(octyloxy)butanoyl)oxy)-2-((((3-(diethylamino)propoxy)carbonyl)oxy)methyl)propyl) 9-dodecyl nonanedioate] | 99% | 6.16 | 77.35 nm | 0.022 | 93.69 nm | 62 | 470
7 | CCCCCC/C=C\COC(=O)CCCCCCCC(=O)OCC(COC(=O)CCC(OCCCCCCC)OCCCCCCC)COC(=O)OCCCN(CC)CC (stereo not drawn) [Compound 84, (Z)-1-(3-((4,4-bis(heptyloxy)butanoyl)oxy)-2-((((3-(diethylamino)propoxy)carbonyl)oxy)methyl)propyl) 9-(non-2-en-1-yl) nonanedioate] | 95% | 6.16 | 86.08 nm | 0.086 | 114.2 nm | 71 | 648
8 | CCCCCCCCCCCCCCOC(=O)CCCCCCCC(=O)OCC(COC(=O)CCC(OCCCCCCCC)OCCCCCCCC)COC(=O)OCCCN(CC)CC (stereo not drawn) [Compound 93, 1-(3-((4,4-bis(octyloxy)butanoyl)oxy)-2-((((3-(diethylamino)propoxy)carbonyl)oxy)methyl)propyl) 9-tetradecyl nonanedioate] | 98% | 6.15 | 78.73 nm | 0.004 | 95.19 nm | 88 | 669
9 | CCCCCC/C=C\COC(=O)CCCCCC(=O)OCC(COC(=O)CCC(OCCCCCCCC)OCCCCCCCC)COC(=O)OCCCN(CC)CC (stereo not drawn) [Compound 55, (Z)-1-(3-((4,4-bis(octyloxy)butanoyl)oxy)-2-((((3-(diethylamino)propoxy)carbonyl)oxy)methyl)propyl) 7-(non-2-en-1-yl) heptanedioate] | 96% and 92% | 6.84 | 79.46 nm and 90.16 nm | 0.048 and 0.039 | 101 nm and 113.2 nm | 51 | 442

Further lines, with some results ahead:

Row | Encapsulation (%) [1] | pKa [2] | Number mean (nm) [3] | PDI [3] | Z-avg (nm) [3] | Compound | Serum TTR % TSS (Transthyretin (TTR)) [%] | Serum TTR (Transthyretin (TTR)) [µg/mL]
10 | 98% | 7.39 | 73 nm | 0.000 | 88 nm | CCCCC/C=C\C/C=C\CCCCCCCC(=O)OCC(COC(=O)CCCN(C)C)COC(=O)CCC(OCCCCCCCC)OCCCCCCCC (stereo not drawn) [Compound 26, 3-((4,4-bis(octyloxy)butanoyl)oxy)-2-(((4-(dimethylamino)butanoyl)oxy)methyl)propyl (9Z,12Z)-octadeca-9,12-dienoate] | 112 | 1008
11 | 98% | 7.3 | 72.23 nm | 0.018 | 86.15 nm | CCCCC/C=C\C/C=C\CCCCCCCC(=O)OCC(COC(=O)CCC(OCCCCCCCC)OCCCCCCCC)COC(=O)OCC1CCN(CC)C1 (stereo not drawn) [Compound 51, 3-((4,4-bis(octyloxy)butanoyl)oxy)-2-(((((1-ethylpyrrolidin-3-yl)methoxy)carbonyl)oxy)methyl)propyl (9Z,12Z)-octadeca-9,12-dienoate] | 76 | 843
12 | 98% | 6.58 | 59.48 nm | 0.024 | 73.71 nm | CCCCC/C=C\C/C=C\CCCCCCCC(=O)OCC(COC(=O)CCC(OCCCCCCCC)OCCCCCCCC)COC(=O)NC1CCCN(CC)C1 (stereo not drawn) [Compound 36, 3-((4,4-bis(octyloxy)butanoyl)oxy)-2-((((1-ethylpiperidin-3-yl)carbamoyl)oxy)methyl)propyl (9Z,12Z)-octadeca-9,12-dienoate] | 99 | 795
13 | 99% | 6.9 | 58.66 nm | 0.027 | 74.03 nm | CCCCC/C=C\C/C=C\CCCCCCCC(=O)OCC(COC(=O)CCC(OCCCCCCCC)OCCCCCCCC)COC(=O)NC1CCCN(C)C1 (stereo not drawn) [Compound 42, 3-((4,4-bis(octyloxy)butanoyl)oxy)-2-((((1-methylpiperidin-3-yl)carbamoyl)oxy)methyl)propyl (9Z,12Z)-octadeca-9,12-dienoate] | 81 | 902
14 | 99% | 7.32 | 61 nm | 0.040 | 77 nm | CCCCC/C=C\C/C=C\CCCCCCCC(=O)OCC(COC(=O)CCC(OCCCCCCCC)OCCCCCCCC)COC(=O)C1(C)CCN(C)CC1 (stereo not drawn) [Compound 32, 3-((4,4-bis(octyloxy)butanoyl)oxy)-2-((((9Z,12Z)-octadeca-9,12-dienoyl)oxy)methyl)propyl 1,4-dimethylpiperidine-4-carboxylate] | 43 | 388
15 | 97% | 5.35 | 45 nm | 0.100 | 66 nm | CCCCC/C=C\C/C=C\CCCCCCCC(=O)OCC(COC(=O)CCC(OCCCCCCCC)OCCCCCCCC)COC(=O)CCN(CC)CC (stereo not drawn) [Compound 27, 3-((4,4-bis(octyloxy)butanoyl)oxy)-2-(((3-(diethylamino)propanoyl)oxy)methyl)propyl (9Z,12Z)-octadeca-9,12-dienoate] | 93 | 841
